Results on 17 compounds are retold here after patent US5663159A, “Prodrugs of phosphonates” (Institute of Organic Chemistry and Biochemistry of the …, priority 1994, dated 1997).

Converted amounts (≈) assume the structure as drawn. “Also recorded” adds a separate entry of the source. Where a name gives a salt, the structure may show the parent alone. Read-outs that look alike come from different tables or passages of the source. Where only a bound is given, the exact number is not on record here.

In one data set the test system is HSV-2 (G STRAIN). Nature of the data set: In vitro activity of PMEA prodrugs against HSV-2 (G strain), plaque reduction. Type of data set: cell-based. As to conditions: for ID50: dose which gives a 50% reduction of plaque formation; for IC50: Human alphaherpesvirus 2, dose which gives a 50% reduction of plaque formation, read-out: ID50 (the source's name). The text has this:
PRODRUGS AGAINST HSV-2 (G STRAIN)
^a DOSE WHICH GIVES A 50% REDUCTION OF PLACQUE FORMATION

The nature of data set [1]: Toxicity in the in vitro HSV-2 test.
Data set [2] deals with murine cytomegalovirus (MCMV). To be noted: cited from earlier work.
Data set [3] concerns human immunodeficiency virus (HIV). As to conditions: literature, cited from earlier work.
The test system of the next data set is P388 leukemia. To be noted: murine tumor model; cited from earlier work.
Data set [4] relates to Rauscher murine leukemia virus (R-MuLV). As to conditions: cited from earlier work.
The test system of data set [5] is herpes simplex virus, type 2 (HSV-2). To be noted: literature; cited from earlier work.
The subject of data set [6] is herpes simplex virus, type 1 (HSV-1). To be noted: literature; cited from earlier work.
For data set [7], the system named is Rauscher murine leukemia virus (R-MuLV). As to conditions: mice; vs 3'-azido-3'-deoxythymidine (AZT); cited from earlier work.
For data set [8], the system named is human cytomegalovirus (HCMV). As to conditions: literature; cited from earlier work.
The subject of another data set is HSV 1. To be noted: in vivo, mice; more potent than acyclovir; cited from earlier work.
The subject of another data set is B16 melanoma. To be noted: murine tumor model; cited from earlier work.
In the next data set the test system is herpes viruses. To be noted: cited from earlier work.
The test system of data set [9] is varicella zoster virus (VZV). As to conditions: literature; cited from earlier work.
Data set [10] deals with equid herpesviruse type 1 (equine abortion virus, EHV-1). As to conditions: literature; cited from earlier work.
Data set [11] relates to murine sarcoma virus (MSV). To be noted: literature; cited from earlier work.
A further data set deals with vaccinia virus. To be noted: literature; cited from earlier work.
The test system of data set [12] is African swine fever (ASF) virus. As to conditions: literature; cited from earlier work.
The subject of data set [13] is herpes simplex virus type 1. To be noted: mice in vivo; including herpetic keratitis caused by a TK^- mutant; cited from earlier work.
The next data set has as its system adenovirus. To be noted: literature; cited from earlier work.
The test system of data set [14] is herpes simplex virus type 1. To be noted: rabbits in vivo; including herpetic keratitis caused by a TK^- mutant; cited from earlier work.
Data set [15] relates to thymidine kinase-deficient (TK^-) mutants of herpes simplex. As to conditions: literature; cited from earlier work.
For data set [16], the system named is bovid herpesvirus type 1 (infectious bovine rhinotracheitis virus, BHV-1). To be noted: literature; cited from earlier work.
For data set [17], the system named is simian herpesvirus platyrrhinae (HVP). To be noted: literature; cited from earlier work.
Data set [18] deals with suid herpesvirus type 1 (SHV-1, or pseudorabies virus or Aujeszky's disease virus). As to conditions: literature; cited from earlier work.
The subject of data set [19] is phocid herpesvirus type 1 (seal herpesvirus, SeHV). To be noted: literature; cited from earlier work.

Take `Nc1ncnc2c1ncn2CCOCP(=O)(Oc1ccccc1)Oc1ccccc1` [Example 35, PMEA, diphenyl ester]: the ID50 in the data set with HSV-2 (G STRAIN) is 34 µg/mL (≈ 79.9 µM). The CC50 in data set [1] was > 166 µg/mL.

In the case of `Nc1ncnc2c1ncn2CCOCP(=O)(O)O` [Example 1, 9-(2-Phosphonylmethoxy)ethyladenine], in the data set on HSV-2 (G STRAIN), the IC50 came to 39 µg/mL (≈ 143 µM). The “antiviral effect in vivo against MCMV” value in data set [2] was “significant antiviral effect”. The “activity against HIV” value in data set [3] (listed as PMEA) was “active; also recorded: good in vitro activity”. Also, the “activity against intraperitoneal P388 leukemia” value with P388 leukemia is “active”. Moreover, the “in vitro activity against R-MuLV” value in data set [4] is “good in vitro activity”. In addition, the “activity against HSV-2” value in [5] was “active”. For the same compound, the CC50 in “in vitro” is > 166 µg/mL. Further, in data set [6], the “activity against HSV-1” value is reported as “active”. Besides, in data set [7], the “potency in vivo relative to AZT in the treatment of R-MuLV” value is “more potent in vivo”. Further, the “activity against HCMV” value in [8] is “in vitro activity”.

With `CC(C)(C)C(=O)OCOP(=O)(O)COCCn1cnc2c(N)ncnc21` [Example 15, PMEA, mono pivaloyloxymethyl ester], the IC50 with HSV-2 (G STRAIN) was found to be 8.1 µg/mL (≈ 20.9 µM). The CC50 in [1] was found to be 100 µg/mL (≈ 258 µM).

With `Nc1nc2c(ncn2CCOCP(=O)(O)O)c(=O)[nH]1` [PMEG], the “potency relative to acyclovir against HSV 1 infection” value in the data set with HSV 1 is > 50 fold. In addition, the “activity against B16 melanoma” value with B16 melanoma was “active”. Further, the “activity against intraperitoneal P388 leukemia” value with P388 leukemia is “active”. Moreover, the “activity against HSV-2” value in data set [5] is “active”. Moreover, in [6], the “activity against HSV-1” value is given as “active”. The “in vitro potency against herpes viruses” value in the data set on herpes viruses was “exceptionally potent”.

As to `CC(C)OP(=O)(COCCn1cnc2c(N)ncnc21)Oc1ccccc1` (centres unmarked) [Example 16, PMEA, (mono isopropyl, monophenyl) ester], in the data set with HSV-2 (G STRAIN), the ID50 is > 100 µg/mL. Further, the CC50 in data set [1] worked out at 100 µg/mL (≈ 256 µM).

With `Nc1nc2c(ncn2C[C@@H](CO)OCP(=O)(O)O)c(=O)[nH]1` [(S)-HPMPG], the “activity against HSV-2” value in [5] is listed as “active”. Moreover, in data set [6], the “activity against HSV-1” value was “active”.

Regarding `Nc1ncnc2c1ncn2CCOCP(=O)(O)OCCCO` [Example 22, PMEA, 3-hydroxypropanyl ester, (sodium salt)], in the data set with HSV-2 (G STRAIN), the IC50 turned out to be 110 µg/mL. Also, the CC50 in the data set “in vitro” is > 166 µg/mL.

As for `Nc1nc(N)c2ncn(C[C@@H](CO)OCP(=O)(O)O)c2n1` [(S)-HPMPDAP], the “activity against HSV-2” value in data set [5] is listed as “active”. The “activity against HSV-1” value in [6] is “active”.

In the case of `Nc1nc(N)c2ncn(CCOCP(=O)(O)O)c2n1` [PMEDAP], in data set [3], the “activity against HIV” value is “active”. For the same compound, in data set [5], the “activity against HSV-2” value is on record as “active”. Besides, the “activity against HSV-1” value in [6] is “active”.

As for `Nc1ncnc2c1ncn2C[C@@H](CO)OCP(=O)(O)O` [(S)-HPMPA, (S)-9-((3-hydroxy-2-phosphonylmethoxy)propyl)adenine], the “activity against VZV” value in [9] is “potent and selective activity; also recorded: active”. Further, the “activity against EHV-1” value in [10] is “potent and selective activity”. The “activity against MSV” value in data set [11] was “potent and selective activity”. Further, the “activity against vaccinia virus” value in the data set with vaccinia virus was “potent and selective activity; also recorded: active”. In addition, in the data set with P388 leukemia, the “activity against intraperitoneal P388 leukemia” value is reported as “active”. In addition, the “activity against ASF virus” value in [12] was “potent and selective activity”. The “efficacy against local and systemic HSV-1 infections” value in data set [13] and in data set [14] was “effective” throughout. Also, the activity against adenovirus result with adenovirus was “potent and selective activity; also recorded: active”. The “activity against TK^- mutants of herpes simplex” value in [15] was “potent and selective activity”. Besides, the “activity against BHV-1” value in [16] is “potent and selective activity”. The “activity against HSV-2” value in [5] is “potent and selective activity; also recorded: active”. In data set [17], the “activity against HVP” value is “potent and selective activity”. The “activity against SHV-1” value in [18] was “potent and selective activity”. In addition, in data set [6], the “activity against HSV-1” value was “potent and selective activity; also recorded: active”. In addition, the “activity against SeHV” value in [19] is “potent and selective activity”. Besides, in [8], the “activity against HCMV” value is “potent and selective activity”.

Consider `CC(C)C(=O)OCOP(=O)(COCCn1cnc2c(N)ncnc21)OCOC(=O)C(C)C` [Example 13, PMEA, di-(isobutyrloxymethyl ester)], for which the IC50 in the data set on HSV-2 (G STRAIN) is < 0.1 µg/mL. Also, the CC50 in the data set “in vitro” was 100 µg/mL (≈ 211 µM).

In the case of `CC(C)(C)C(=O)OCOP(=O)(COCCn1cnc2c(N)ncnc21)OCOC(=O)C(C)(C)C` [Example 9, PMEA, di(pivaloyloxymethyl ester)], in the data set on HSV-2 (G STRAIN), the IC50 is 0.28 µg/mL (≈ 0.558 µM). Further, the CC50 in the data set “in vitro” is 100 µg/mL (≈ 199 µM).

On to `CCC(=O)OCOP(=O)(COCCn1cnc2c(N)ncnc21)OCOC(=O)CC` [Example 12, PMEA, di-(propionyloxymethyl ester)], for which the IC50 in the data set on HSV-2 (G STRAIN) came out at 0.17 µg/mL (≈ 0.382 µM). Also, the CC50 in “in vitro” is 100 µg/mL (≈ 225 µM).

As to `Nc1ncc2ncn(CCOCP(=O)(O)O)c2n1` [PMEMAP], the “activity against HIV” value in data set [3] is listed as “active”.

Take `Nc1ncnc2c1ncn2C[C@H]1COP(=O)(O)CO1` [(S)-cyclic HPMPA]: the “activity against VZV” value in [9] was “active”. Besides, the “activity against vaccinia virus” value in the data set on vaccinia virus is recorded as “active”. In the data set with adenovirus, the activity against adenovirus entry was “active”. For the same compound, the “activity against HSV-2” value in data set [5] is on record as “active”. The “activity against HSV-1” value in data set [6] is reported as “active”.

Turning to `Nc1ncnc2c1ncn2CCOCP(=O)(O)Oc1ccccc1` [Example 34, PMEA, monophenyl ester (sodium salt)], in the data set on HSV-2 (G STRAIN), the ID50 is 42 µg/mL. Moreover, the CC50 in [1] was > 166 µg/mL.

For `Nc1ccn(C[C@@H](CO)OCP(=O)(O)O)c(=O)n1` [(S)-HPMPC], in data set [5], the “activity against HSV-2” value is “active”. Further, the “activity against HSV-1” value in data set [6] is “active”. Also, the “activity against HCMV” value in data set [8] was “active”.
